The subject of one assay is Nf1^+/− mutant mice. The conditions noted are these: previous study (ref. 21); cited from earlier work.
Another assay has as its system Ptpn11^D61G/+ mice. Kind of assay: Morris water maze (hidden platform) in Ptpn11^D61G/+ mice treated with lovastatin. The class given is in vivo. As to the method: (§1) FIG. 6 are graphs showing that Lovastatin treatment reverses spatial learning and memory and LTP deficits in Ptpn11^D61G/+ mice. […] Left, Representative immunoblot showing p-Erk (upper) and total Erk (lower) levels in Ptpn11^D61G/+ mice and WT. Hippocampi were dissected 6 hr after the 4th day of lovastatin injection (subcutaneous (s.c.) injections, 10 mg/kg). Right, Bar graph displaying normalized p-Erk levels (mean±s.e.m.). n=7-8 per group. t-test, *P<0.05. […] Two-way ANOVA followed by Bonferroni post-test, WT/Veh vs. Ptpn11^D61G/+/Veh, *P<0.05, **P<0.01; Ptpn11^D61G/+/Veh vs. Ptpn11^D61G/+/Lova, +P<0.05. […] Two-way ANOVA with genotype as between-subjects factor and drug treatment as within-subjects factor, effect of genotype: F(1, 45)=19.79, ***P<0.0001, interaction: F (1,45)=0.4489, P=0.506.
SL327 (Tocris) was dissolved in DMSO (16 mg/ml) and was injected intraperitoneally once daily, 30 min before the water maze experiment at a dose of 32 mg/kg. The volume of a single injection was under 80 μl. Lovastatin (Mevinolin, Sigma) was prepared as previously described^21. Briefly, lovastatin was dissolved in ethanol (final concentration of 8%) and 1N NaOH was added to convert mevinolin to the sodium salt. The pH of the final solution (4 mg/ml) was adjusted to 7.5 with HCl. The Vehicle solution was prepared with the same procedure. Lovastatin was administered daily (subcutaneous injection, 10 mg/kg) for 3 days before the first training day of the water maze and 6 hr before training every day thereafter.
In the hidden platform-version of Morris water maze, mice were trained with two blocks of 2 trials (ITI=1 min) spaced about 45 min apart. In each training trial, mice were released from a different starting position and then were allowed to search for the escape platform for 60 s. The platform was submerged 1 cm under the surface of the water. Once a mouse found the platform, it was left there for 15 s. […] Mice were trained for 5-7 consecutive days. Memory was assessed in probe trials that were given after completion of training as described in the main text. During the probe trial, the platform was removed and the mice were allowed to search for it for 60 s. Data were acquired and analyzed using WaterMaze software (Actimetrics).

Another assay has as its system Erk. Kind of assay: p-Erk immunoblot of Ptpn11^D61G/+ hippocampi after lovastatin injection. The format is in vivo, mice. As to the method: as §1
As in AAV-PTPN11^D61G-infected mice, p-Erk levels were increased in Ptpn11^D61G/+ hippocampi (FIG. 6, panel a). […] Importantly, the spatial learning performance of lovastatin-treated Ptpn11^D61G/+ mice was indistinguishable from controls (FIG. 6, panels d, e).
Dissected hippocampi were homogenized in protein lysis buffer (10 mM Tris-Cl pH 6.8, 1.6% SDS) containing protease and phosphatase inhibitor cocktails (Sigma). Supernatants were collected after centrifugation and the protein concentration was determined using a BCA assay kit (Thermo). […]
For orientation: A western blot detects proteins with antibodies after separation by electrophoresis.

The test system of assay [1] is hippocampal slices of Ptpn11^D61G/+ mice. The assay can be described thus: 5 TBS-induced LTP in hippocampal slices after systemic administrations of lovastatin. The class given is in vivo. As to the method: FIG. 6 are graphs showing that Lovastatin treatment reverses spatial learning and memory and LTP deficits in Ptpn11^D61G/+ mice. […] Left, Representative immunoblot showing p-Erk (upper) and total Erk (lower) levels in Ptpn11^D61G/+ mice and WT. Hippocampi were dissected 6 hr after the 4th day of lovastatin injection (subcutaneous (s.c.) injections, 10 mg/kg). Right, Bar graph displaying normalized p-Erk levels (mean±s.e.m.). n=7-8 per group. t-test, *P<0.05. […] Two-way ANOVA followed by Bonferroni post-test, WT/Veh vs. Ptpn11^D61G/+/Veh, *P<0.05, **P<0.01; Ptpn11^D61G/+/Veh vs. Ptpn11^D61G/+/Lova, +P<0.05. […]
For extracellular recordings of field excitatory postsynaptic potentials (fEPSP), sagittal slices (400 μm) were prepared with a vibratome (VT1000S, Leica) in ice-cold artificial cerebrospinal fluid (ACSF). […] Recording was performed in a submerged chamber perfused with ACSF (32° C.). fEPSPs were recorded with platinum-iridium electrodes placed in the CA1 stratum radiatum. […] Baseline responses were measured with stimulation (0.017 Hz, 0.1 ms pulse duration) at an intensity (typically 20-30 μA) that evoked a response that was approximately one third of the maximum evoked response. […] Initial fEPSP slopes were measured and normalized to the average of baseline (Clampfit 10.2).

[2] abbreviates: Ptpn11^D61G/+ mice, lovastatin 10 mg/kg s.c.

Each structure is given as a SMILES string.

With `CC[C@H](C)C(=O)O[C@H]1C[C@@H](C)C=C2C=C[C@H](C)[C@H](CC[C@@H]3C[C@@H](O)CC(=O)O3)[C@H]21` [Lovastatin], the “spatial learning problems, attention deficits and pre-pulse inhibition deficits” value in the assay on Nf1^+/− mutant mice is recorded as “can rescue”. Besides, the “proximity to the target platform, probe trial” value with Ptpn11^D61G/+ mice (setting [2]) amounted to 39.82±2.53 cm; in the assay with Ptpn11^D61G/+ mice (WT mice, lovastatin 10 mg/kg s.c.), 35.28±3.26 cm. Also, the “time in the target quadrant, probe trial” value in the assay with Ptpn11^D61G/+ mice (setting [2]) is on record as 45.70±4.43%. Also, the “latency to the hidden platform during training sessions” value with Ptpn11^D61G/+ mice (Ptpn11^D61G/+ mice, lovastatin 10 mg/kg s.c. daily) was “comparable latency to WT mice”. Also, the “preference for the target quadrant, quadrant occupancy analysis” value with Ptpn11^D61G/+ mice (Ptpn11^D61G/+/Lova group, TQ vs. other quadrants) is reported as “selectively searched for the target quadrant”. In the assay on Ptpn11^D61G/+ mice (WT animals, lovastatin at the concentration used (10 mg/kg)), the “any measure of learning in WT animals” value is “had no effect on any measure of learning”. Besides, the “normalized p-Erk levels in hippocampi” value in the assay on Erk (Ptpn11^D61G/+ hippocampi, 6 hr after the 4th day of lovastatin s.c. 10 mg/kg) is listed as “reverses increased Erk activation”. Besides, the “Erk activation in hippocampi” value in the assay with Erk (WT controls, lovastatin s.c. 10 mg/kg) was “did not affect Erk activation in controls”. The “Average % fEPSP changes (last 10 minutes of recordings), 5 TBS-induced LTP” value in assay [1] (Ptpn11^D61G/+ mice) was found to be 154.2±6.88%; in assay [1] (WT mice), 150.7±5.49%.

The values above are taken from patent US10835513B2, “Methods and treatments for the learning and memory deficits associated with Noonan syndrome” (The Regents of the University of California, priority 2013, dated 2020).
